Values quoted from earlier work as cited in US20230039551A1, “BUFFER- AND CHELATOR-FREE, STABLE OPHTHALMOLOGICAL COMPOSITIONS OF KETOROLAC AND PHENYLEPHRINE AND APPLICATIONS THEREOF” (Somerset Therapeutics, LLC, priority 2021, published 2023).
Where a name gives a salt, the structure may show the parent alone.

Row | SMILES | pKa value
1 | O=C(c1ccccc1)c1ccc2n1CCC2C(=O)O (centres unmarked) [Ketorolac tromethamine, 2-amino-2-(hydroxymethyl)propane-1,3-diol; 5-benzoyl-2,3-dihydro-1H-pyrrolizine-1-carboxylic acid] | about 3.5
2 | CNC[C@H](O)c1cccc(O)c1 [Phenylephrine HCl, 3-(1R)-1-hydroxy-2-(methylamino)ethyl]phenol; hydrochloride] | about 9.07
